Measurements from patent US7699995B2, “Water treatment method” (priority 2006, dated 2010).
Marks after values point to notes of the source that are not given here.

What was measured:
[1] = buffer, pH 9
Method: pH 9 buffer containing 0.069 M boric acid, 0.017 M citric acid, 0.066 M sodium phosphate was prepared in distilled water. Biocide was dosed into the pH 9 buffer solution and stored at 70° C. in a heat block. The samples were examined for active ingredient concentration at the time points after 5 hours, and 1, 3, 7, 23, 30, 35 and 56 days. Initial biocide doses were 166 ppm MI, 199 ppm BIT and 150 ppm BNPD.
The samples were evaluated for active ingredient concentration via High Pressure Liquid Chromatography. Samples were taken from the heating blocks and allowed to cool to room temperature for 30 minutes. The samples were then diluted 1:20 in deionized water by adding 9.5 ml of deionized water to 0.5 grams of the samples in a 25 ml glass sample vial. The samples were mixed for 15 seconds and transferred to HPLC sample vials for analysis.

[2] = Stability in buffered water at various pH and temperatures (HPLC); type: physicochemical
Method: Biocides were added to buffer solutions and stability was tested at 22° and 50° C. using HPLC to measure biocide concentration at 0 time, 21 days, 43 days, and 88-90 days. Biocide stability was determined in the following buffer solutions: pH2, 0.01M HCl; pH6, 0.1M KH2PO4; pH8, 0.025M borate; pH10, 0.025M borate; pH12, 0.05M Na2HPO4. Biocide concentrations tested were 100 ppm MI, 200 ppm BIT, 44 ppm CMI.

[3] = Stability in high pH metalworking fluid use dilutions (HPLC); type: physicochemical; settings: for % CMIT Remaining (without MCC) / % CMIT Remaining (with MCC): 25° C.; for % CMIT Remaining (with MCC): MCC 300 ppm
Method: Stability studies were conducted in three high pH metalworking fluid use dilutions to compare the persistence of MIT biocide versus CMIT biocide, tested alone and in combination with MCC). Aliquots of the use-diluted fluids were dosed with 17.5 ppm active CMIT/MIT and CMIT/MIT/MCC and stored at 25° C. Biocide concentrations were determined at time zero and weekly using high performance liquid chromatography (HPLC) analysis.

[4] = test system: Mycobacterium chelonae (ATCC 14472); assay: High resolution MIC test, pure culture, 1/10x TSB; type: cell-based; settings: M. chelonae, 24 hours at 37° C.
Method: (§1) The lowest concentration of microbicide required to inhibit bacteria was determined by a high resolution MIC test. Varying amounts of each microbicide were added to media in a 96-well microtiter plate. The media used for the MIC tests was 10% Trypicase Soy Broth ( 1/10× TSB). […] serial dilutions were performed on a Biomek 2000 Workstation to obtain a range of closely spaced concentrations of microbicides. A cell suspension of stationary phase microorganisms, adjusted to provide 10^6 colony forming units (CFU)/mL in each well for bacteria was added to the microtiter plate. The microtiter plates were incubated for 24 hours at 30° C. for Mycobacterium immunogenum and 37° C. for Mycobacterium chelonae. The presence or absence of microbial growth was determined by measuring the turbidity in each well using a Thermomax microplate reader set at an absorbance of 650 nm. The lowest concentration of compound in which no growth was observed was considered the MIC value for the microbicide. The MIC value for each microbicide was determined from the average of four determinations for bacteria.
(§2) Bacterial strains tested included Mycobacterium chelonae (ATCC 14472) and Mycobacterium immunogenum (ATCC 700505). Mycobacterial cultures were grown overnight at 30° C. (M. immunogenum) or 37° C. (M. chelonae), in a rotary shaking bath in Middlebrook […] with Middlebrook enrichment. A 1:20 dilution of the overnight culture was made into the appropriate test media and inoculated to give a final concentration of 10^6 to 10^7 CFU/ml.

[5] = test system: Mycobacterium immunogenum (ATCC 700505); assay: High resolution MIC test, pure culture, 1/10x TSB; type: cell-based; settings: M. immunogenum, 24 hours at 30° C.
Method: as §1, §2

[6] = test system: Mycobacterium chelonae (ATCC 14472); assay: MBC test, transfer from MIC plates to fresh media; type: cell-based; settings: M. chelonae, no survivors after 2 days in fresh media
Method: as §2
(§3) MBC tests were conducted by transferring samples from the MIC test samples into fresh media and observing for growth of the culture. Growth was determined as above. In this test using Biomek 2000 Workstation, 10 μl samples taken from the 96-well MIC plates were placed in […] of fresh growth media to determine the number of surviving organisms for the same gradient of biocide concentrations. These plates were incubated and read in the same fashion as the MIC plates.

[7] = test system: Mycobacterium immunogenum (ATCC 700505); assay: MBC test, transfer from MIC plates to fresh media; type: cell-based; settings: M. immunogenum, no survivors after 2 days in fresh media
Method: as §2, §3

[8] = test system: natural, resident populations of Mycobacterium; assay: Eradication of mycobacteria in naturally contaminated in-use metalworking fluids; type: cell-based; settings: for No. of Fluids with ≧99% Kill (2-log reduction): of six fluids, 48 hours
Method: A comparative study was conducted evaluating six metalworking fluid biocides versus natural, resident populations of Mycobacterium from six in-use metalworking fluids. CMIT/MIT, CMIT/MIT/MCC, MIT, BIT, triazine, and PCMC microbicides were tested under controlled laboratory conditions to determine their efficacy at the maximum manufacturer's recommended dose rate (Table 2). The metalworking fluids were known to contain high levels of mycobacteria prior to dosing with biocides. Samples were then dosed with biocides, incubated with agitation at room temperature and viable mycobacteria counts determined after 48 hours by plating onto Middlebrook 7H10 medium, with Tween 80, glycerin, cyclohexamide, chloramphenicol, and gentamycin to suppress the growth of unwanted microorganisms.
The six metalworking fluid samples containing mycobacteria study from Example 7, were also tested using the same biocides with dosing at 50% of the maximum manufacturer's recommended rate (Table 2) under the same conditions. These metalworking fluids were known to contain high levels of mycobacteria prior to dosing with biocides. Samples were then dosed with biocides, incubated with agitation at room temperature and viable mycobacteria counts determined after 48 hours by plating onto Middlebrook 7H10 medium, with Tween 80, glycerin, cyclohexamide, chloramphenicol, and gentamycin to suppress the growth of unwanted microorganisms.

[9] = Synthetic Fluid 2 (pH 9.4), 1 wk
[10] = Synthetic Fluid 2 (pH 9.4), 3 wk
[11] = Fluid 1, 48 hours, 50% of recommended maximum dose
[12] = Fluid 1, 48 hours, 100% of recommended maximum dose
[13] = Fluid 2, 48 hours, 50% of recommended maximum dose
[14] = Fluid 2, 48 hours, 100% of recommended maximum dose
[15] = Fluid 3, 48 hours, 50% of recommended maximum dose
[16] = Fluid 3, 48 hours, 100% of recommended maximum dose
[17] = Fluid 4, 48 hours, 50% of recommended maximum dose
[18] = Fluid 4, 48 hours, 100% of recommended maximum dose
[19] = Fluid 5, 48 hours, 50% of recommended maximum dose
[20] = Fluid 5, 48 hours, 100% of recommended maximum dose
[21] = Fluid 6, 48 hours, 50% of recommended maximum dose
[22] = Fluid 6, 48 hours, 100% of recommended maximum dose

For `O=[N+]([O-])C(Br)(CO)CO` [BNPD, 2-bromo-2-nitro-propane-1,3-diol], the “Percent Remaining after: 0” value ([1]; 0 h) was 100%, the “Percent Remaining after: 5 hr” value ([1]; 5 h) was 0% and the “Percent Remaining after: 1 day” value ([1]; 24 h) was 0%.

With `Cn1sc(Cl)cc1=O` [CMI, 5-chloro-2-methyl-4-isothiazolin-3-one] the “Percent Remaining at: pH 2” value ([2]; 22° C., day 0) was 100%, the “Percent Remaining at: pH 6” value ([2]; 22° C., day 0) was 100% and the “Percent Remaining at: pH 8” value ([2]; 22° C., day 0) was 100%. The “Percent Remaining at: pH 10” value ([2]; 22° C., day 0) was 100%, the “Percent Remaining at: pH 12” value ([2]; 22° C., day 0) was 100% and the “Percent Remaining at: pH 2” value ([2]; 22° C., day 21) was 100%. For the same compound, the “Percent Remaining at: pH 6” value ([2]; 22° C., day 21) was 100%, the “Percent Remaining at: pH 8” value ([2]; 22° C., day 21) was 100% and the “Percent Remaining at: pH 10” value ([2]; 22° C., day 21) was 0%. The “Percent Remaining at: pH 12” value ([2]; 22° C., day 21) was 0%, the “Percent Remaining at: pH 2” value ([2]; 22° C., day 43) was 100% and the “Percent Remaining at: pH 6” value ([2]; 22° C., day 43) was 100%. For the same compound, the “Percent Remaining at: pH 8” value ([2]; 22° C., day 43) was 91%, the “Percent Remaining at: pH 10” value ([2]; 22° C., day 43) was 0% and the “Percent Remaining at: pH 12” value ([2]; 22° C., day 43) was 0%. The “Percent Remaining at: pH 2” value ([2]; 22° C., day 88) was 100%, the “Percent Remaining at: pH 6” value ([2]; 22° C., day 88) was 100% and the “Percent Remaining at: pH 8” value ([2]; 22° C., day 88) was 95%. For the same compound, the “Percent Remaining at: pH 10” value ([2]; 22° C., day 88) was 0%, the “Percent Remaining at: pH 12” value ([2]; 22° C., day 88) was 0% and the “Percent Remaining at: pH 2” value ([2]; 50° C., day 0) was 100%. The “Percent Remaining at: pH 6” value ([2]; 50° C., day 0) was 100%, the “Percent Remaining at: pH 8” value ([2]; 50° C., day 0) was 100% and the “Percent Remaining at: pH 10” value ([2]; 50° C., day 0) was 100%. For the same compound, the “Percent Remaining at: pH 12” value ([2]; 50° C., day 0) was 100%, the “Percent Remaining at: pH 2” value ([2]; 50° C., day 21) was 100% and the “Percent Remaining at: pH 6” value ([2]; 50° C., day 21) was 100%. The “Percent Remaining at: pH 8” value ([2]; 50° C., day 21) was 15%, the “Percent Remaining at: pH 10” value ([2]; 50° C., day 21) was 0% and the “Percent Remaining at: pH 12” value ([2]; 50° C., day 21) was 0%. For the same compound, the “Percent Remaining at: pH 2” value ([2]; 50° C., day 43) was 93%, the “Percent Remaining at: pH 6” value ([2]; 50° C., day 43) was 65% and the “Percent Remaining at: pH 8” value ([2]; 50° C., day 43) was 0%. The “Percent Remaining at: pH 10” value ([2]; 50° C., day 43) was 0%, the “Percent Remaining at: pH 12” value ([2]; 50° C., day 43) was 0% and the “Percent Remaining at: pH 2” value ([2]; 50° C., day 88) was 100%. The “Percent Remaining at: pH 6” value ([2]; 50° C., day 88) was 30%, the “Percent Remaining at: pH 8” value ([2]; 50° C., day 88) was 0% and the “Percent Remaining at: pH 10” value ([2]; 50° C., day 88) was 0%. The “Percent Remaining at: pH 12” value ([2]; 50° C., day 88) was 0%, the “% CMIT Remaining (without MCC)” value ([3]; Soluble Fluid 1 (pH 9.2), 2 wk) was 28% and the “% CMIT Remaining (with MCC)” value ([3]; Soluble Fluid 1 (pH 9.2), 2 wk) was 38%. The “% CMIT Remaining (without MCC)” value ([3]; Soluble Fluid 1 (pH 9.2), 4 wk) was 10%, the “% CMIT Remaining (with MCC)” value ([3]; Soluble Fluid 1 (pH 9.2), 4 wk) was 18% and the “% CMIT Remaining (without MCC)” value ([3]; Soluble Fluid 3 (pH 9.3), 2 wk) was 25%. For the same compound, the “% CMIT Remaining (with MCC)” value ([3]; Soluble Fluid 3 (pH 9.3), 2 wk) was 35%, the “% CMIT Remaining (without MCC)” value ([3]; Soluble Fluid 3 (pH 9.3), 4 wk) was 0% and the “% CMIT Remaining (with MCC)” value ([3]; Soluble Fluid 3 (pH 9.3), 4 wk) was 16%. For the same compound, the “% CMIT Remaining (without MCC)” value [3, 9] was 13%, the “% CMIT Remaining (with MCC)” value [3, 9] was 42% and the “% CMIT Remaining (without MCC)” value [3, 10] was 0* %. For the same compound, the “% CMIT Remaining (with MCC)” value [3, 10] was 0%, the “biocide remaining, CMIT with MCC” value ([3]; after 3-4 weeks in the three fluids, 300 ppm MCC) was ≤ 16% and the “biocide remaining, CMIT alone” value ([3]; after 3-4 weeks in the three fluids, without MCC) was “none remaining”.

With `C1COCN1` [Oxazolidine] the “Minimum Inhibitory Concentration” value [4] was 42 ppm active, the “Minimum Inhibitory Concentration” value [5] was 38 ppm active and the “Minimum Biocidal Concentration” value [6] was 34 ppm active. For the same compound, the “Minimum Biocidal Concentration” value [7] was 836 ppm active.

For `Cc1cc(O)ccc1Cl` [PCMC], the “Minimum Inhibitory Concentration” value [4] was 20 ppm active, the “Minimum Inhibitory Concentration” value [5] was 35 ppm active and the “Minimum Biocidal Concentration” value [6] was 60 ppm active. The “Minimum Biocidal Concentration” value [7] was 75 ppm active, the “Log Reduction in Mycobacterial Counts versus Control (no biocide)” value (from here on “Log Reduction … (no biocide)”) [8, 11] was 0.00 log and the “Log Reduction … (no biocide)” value [8, 12] was 5.88 log. The “Log Reduction … (no biocide)” value [8, 13] was 1.00 log, the “Log Reduction … (no biocide)” value [8, 14] was 5.00 log and the “Log Reduction … (no biocide)” value [8, 15] was 0.00 log. For the same compound, the “Log Reduction … (no biocide)” value [8, 16] was 1.00 log, the “Log Reduction … (no biocide)” value [8, 17] was 5.24 log and the “Log Reduction … (no biocide)” value [8, 18] was 5.24 log. For the same compound, the “Log Reduction … (no biocide)” value [8, 19] was 0.51 log, the “Log Reduction … (no biocide)” value [8, 20] was 0.90 log and the “Log Reduction … (no biocide)” value [8, 21] was 3.88 log. The “Log Reduction … (no biocide)” value [8, 22] was 3.88 log.

With `OCCN1CN(CCO)CN(CCO)C1` [Triazine] the “Minimum Inhibitory Concentration” value [4] was 43 ppm active, the “Minimum Inhibitory Concentration” value [5] was 39 ppm active and the “Minimum Biocidal Concentration” value [6] was 314 ppm active. For the same compound, the “Minimum Biocidal Concentration” value [7] was 314 ppm active, the “Log Reduction … (no biocide)” value [8, 11] was 0.00 log and the “Log Reduction … (no biocide)” value [8, 12] was 0.00 log. For the same compound, the “Log Reduction … (no biocide)” value [8, 13] was 0.00 log, the “Log Reduction … (no biocide)” value [8, 14] was 0.12 log and the “Log Reduction … (no biocide)” value [8, 15] was 0.00 log. The “Log Reduction … (no biocide)” value [8, 16] was 0.00 log, the “Log Reduction … (no biocide)” value [8, 17] was 0.00 log and the “Log Reduction … (no biocide)” value [8, 18] was 0.00 log. For the same compound, the “Log Reduction … (no biocide)” value [8, 19] was 0.06 log, the “Log Reduction … (no biocide)” value [8, 20] was 0.00 log and the “Log Reduction … (no biocide)” value [8, 21] was 0.00 log. For the same compound, the “Log Reduction … (no biocide)” value [8, 22] was 0.00 log, the “No. of Fluids with ≧99% Kill (2-log reduction)” value ([8]; 50% of recommended maximum dose) was 0 and the “No. of Fluids with ≧99% Kill (2-log reduction)” value ([8]; 100% of recommended maximum dose) was 0.
